Experimental data from patent publication US20160045513A1, “ISOXAZOLE COMPOUND FOR THE TREATMENT OF CANCER” (Novartis AG, priority 2007, published 2016).

Legend:
Test in all cases: clonogenic assay, human tumor xenografts in vitro
Type in all cases: cell-based
[1] = system: LXFS 650; conditions: Lung, small cell, LXFS 650, Small cell lung carcinoma, soft agar, read-out: IC50 (nM), colony formation
Method: (§1) The anticancer activity of 5-(2,4-Dihydroxy-5-isopropyl-phenyl)-4-(4-morpholin-4-ylmethyl-phenyl)-isoxazole-3-carboxylic acid ethylamide is evaluated in 30 human tumor xenografts in vitro using a clonogenic assay. In this assay, human cells derived from cancer patients are evaluated for the capacity of 5-(2,4-Dihydroxy-5-isopropyl-phenyl)-4-(4-morpholin-4-ylmethyl-phenyl)-isoxazole-3-carboxylic acid ethylamide to inhibit the formation of 3 dimensional colonies. […] The tumor xenografts which have never been cultured in cell culture plastic dishes are isolated from nude mice. Tumor cell suspensions are prepared and incubated in 24 well plates containing layers of soft agar. Under these conditions a special subpopulation of cells selectively grows to colonies. 5-(2,4-Dihydroxy-5-isopropyl-phenyl)-4-(4-morpholin-4-ylmethyl-phenyl)-isoxazole-3-carboxylic acid ethylamide was tested in 6 concentrations up to […]. The tumor test panel comprises 1 to 6 models of 10 different human tumor or cancer types, which were bladder cancer, colon, liver, non small cell lung (adeno, squamous epithelium and large cell), small cell lung, mammary, ovary, pancreatic, melanoma and pleuramesothelioma. Antitumor effects are recorded as inhibition of colony formation in relation to untreated controls. Further information on the method has been published (Burger et al., 2004; Fiebig et al., 2004; Smith et al., 2005).
(§2) The cells are continually exposed to 5-(2,4-Dihydroxy-5-isopropyl-phenyl)-4-(4-morpholin-4-ylmethyl-phenyl)-isoxazole-3-carboxylic acid ethylamide and colony formation is determined.

[2] = system: MEXF 535; conditions: Melanoma, MEXF 535, Amelanotic melanoma, soft agar, read-out: IC50 (nM), colony formation
Method: as §1, §2

[3] = system: MAXF 401; conditions: MAXF401, Breast, MAXF 401, Pap. adeno carcinoma, soft agar, read-out: IC50 (nM), colony formation
Method: as §1, §2

[4] = system: CXF 1103; conditions: CXF1103, Colon, CXF 1103, Adeno carcinoma, soft agar, read-out: IC50 (nM), colony formation
Method: as §1, §2

[5] = system: PAXF 1657; conditions: Pancreas, PAXF 1657, Adeno carcinoma, soft agar, read-out: IC50 (nM), colony formation
Method: as §1, §2

[6] = system: LXFE 1422; conditions: Lung, non-small cell, LXFE 1422, Squamous cell carcinoma, soft agar, read-out: IC50 (nM), colony formation
Method: as §1, §2

[7] = system: LXFA 983; conditions: Lung, non-small cell, LXFA 983, Adeno carcinoma, soft agar, read-out: IC50 (nM), colony formation
Method: as §1, §2

[8] = system: LIXF 575; conditions: Liver, LIXF 575, Hepatocellular carcinoma, soft agar, read-out: IC50 (nM), colony formation
Method: as §1, §2

[9] = system: LXFA 629; conditions: Lung, non-small cell, LXFA 629, Adeno carcinoma, soft agar, read-out: IC50 (nM), colony formation
Method: as §1, §2

[10] = system: PXF 1118; conditions: Pleuramesothelioma, PXF 1118, Biphasic pleuramesothelioma, soft agar, read-out: IC50 (nM), colony formation
Method: as §1, §2

[11] = system: MEXF 989; conditions: Melanoma, MEXF 989, Amelanotic melanoma, soft agar, read-out: IC50 (nM), colony formation
Method: as §1, §2

[12] = system: BXF 1228; conditions: Bladder, BXF 1228, Transitional cell carcinoma, soft agar, read-out: IC50 (nM), colony formation
Method: as §1, §2

[13] = system: MEXF 1539; conditions: Melanoma, MEXF 1539, Melanoma, soft agar, read-out: IC50 (nM), colony formation
Method: as §1, §2

[14] = system: MEXF 672; conditions: Melanoma, MEXF 672, Amelanotic melanoma, soft agar, read-out: IC50 (nM), colony formation
Method: as §1, §2

[15] = system: CXF 609; conditions: Colon, CXF 609, Adeno carcinoma, soft agar, read-out: IC50 (nM), colony formation
Method: as §1, §2

[16] = system: OVXF 1353; conditions: Ovary, OVXF 1353, Adeno carcinoma, soft agar, read-out: IC50 (nM), colony formation
Method: as §1, §2

[17] = system: LXFA 297; conditions: Lung, non-small cell, LXFA 297, Adeno carcinoma, soft agar, read-out: IC50 (nM), colony formation
Method: as §1, §2

[18] = system: OVXF 1544; conditions: Ovary, OVXF 1544, Carcinoma, soft agar, read-out: IC50 (nM), colony formation
Method: as §1, §2

[19] = system: CXF 1729; conditions: Colon, CXF 1729, Carcinoma, soft agar, read-out: IC50 (nM), colony formation
Method: as §1, §2

[20] = system: MAXF 1322; conditions: Breast, MAXF 1322, Pap. adeno carcinoma, soft agar, read-out: IC50 (nM), colony formation
Method: as §1, §2

[21] = system: CXF 158; conditions: CXF158, Colon, CXF 158, Adeno carcinoma, soft agar, read-out: IC50 (nM), colony formation
Method: as §1, §2

[22] = system: BXF 1218; conditions: Bladder, BXF 1218, Transitional cell carcinoma, soft agar, read-out: IC50 (nM), colony formation
Method: as §1, §2

[23] = system: LXFL 1647; conditions: Lung, non-small cell, LXFL 1647, Large cell lung carcinoma, soft agar, read-out: IC50 (nM), colony formation
Method: as §1, §2

[24] = system: CXF 1784; conditions: Colon, CXF 1784, Carcinoma, soft agar, read-out: IC50 (nM), colony formation
Method: as §1, §2

## CCNC(=O)c1noc(-c2cc(C(C)C)c(O)cc2O)c1-c1ccc(CN2CCOCC2)cc1 [AUY922, 5-(2,4-Dihydroxy-5-isopropyl-phenyl)-4-(4-morpholin-4-ylmethyl-phenyl)-isoxazole-3-carboxylic acid ethylamide]
[1]
  IC50: 2 nM
[2]
  IC50: 43 nM
[3]
  IC50: 78 nM
[4]
  IC50: 13 nM
[5]
  IC50: 39 nM
[6]
  IC50: 48 nM
[7]
  IC50: 126 nM
[8]
  IC50: 34 nM
[9]
  IC50: 35 nM
[10]
  IC50: 223 nM
[11]
  IC50: 2 nM
[12]
  IC50: 630 nM
[13]
  IC50: 3 nM
[14]
  IC50: 18 nM
[15]
  IC50: 55 nM
[16]
  IC50: 26 nM
[17]
  IC50: 28 nM
[18]
  IC50: 53 nM
[19]
  IC50: 467 nM
[20]
  IC50: 29 nM
[21]
  IC50: 369 nM
[22]
  IC50: 27 nM
[23]
  IC50: 34 nM
[24]
  IC50: 418 nM
